From PMC9889419 (Pharmacological Reports, 2022)
“Also recorded” adds a separate entry of the source. Structures can show the parent of a compound that is named as a salt.

Experiments:
[1] = test system: mice; assay: Corneal kindling; format: in vivo; details: ip
[2] = target: T1, M1 (Homo sapiens, UniProt P11229); assay: Radioligand binding
T1 sequence (P11229 1-460): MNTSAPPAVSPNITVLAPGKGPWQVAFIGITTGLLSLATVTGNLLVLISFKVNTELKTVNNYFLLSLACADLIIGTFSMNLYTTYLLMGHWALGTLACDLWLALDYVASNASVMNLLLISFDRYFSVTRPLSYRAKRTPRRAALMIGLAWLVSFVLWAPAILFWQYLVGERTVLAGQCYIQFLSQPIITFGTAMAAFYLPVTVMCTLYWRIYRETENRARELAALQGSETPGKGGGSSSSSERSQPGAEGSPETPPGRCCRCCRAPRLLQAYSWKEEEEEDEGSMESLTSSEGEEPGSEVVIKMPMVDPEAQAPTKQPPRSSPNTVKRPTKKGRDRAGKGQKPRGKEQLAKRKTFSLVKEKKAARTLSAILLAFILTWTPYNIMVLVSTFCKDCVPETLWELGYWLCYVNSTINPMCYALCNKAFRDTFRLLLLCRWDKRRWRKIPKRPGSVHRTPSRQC
Experimental: (§1) Radioligand binding. Radioligand binding assays were performed at Eurofins CEREP (France). The results are expressed as a percent of control specific binding (measured specific binding*100/control specific binding) and as a percent inhibition of control specific binding (100-(measured specific binding*100)/control specific binding) obtained in the presence of the test compounds. The IC50 values (concentration causing a half-maximal inhibition of control specific binding) and Hill coefficients (nH) were determined by non-linear regression analysis of the competition curves generated with mean replicate values using Hill equation curve fitting (Y = D + [A-D]/[1 + (C/C50)^nH], where Y = specific binding, A = left asymptote of the curve, D = right asymptote of the curve, C = compound concentration, C50 = IC50, and nH = slope factor). This analysis was performed using software developed at Cerep (Hill software) and validated by comparison with data generated by the commercial software SigmaPlot® 4.0 for Windows® (© 1997 by SPSS Inc.). The inhibition constants (Ki) were calculated using the Cheng Prusoff equation (Ki = IC50/[1 + L/KD], where L = concentration of radioligand in the assay, and KD = affinity of the radioligand for the receptor). A scatchard plot is used to determine the Kd.

[3] = target: dopamine transporter (Homo sapiens, UniProt Q01959); assay: Radioligand binding
Experimental: as §1

[4] = target: T2, 5-HT2C (Homo sapiens, UniProt P28335); assay: Radioligand binding
T2 sequence (P28335 33-458): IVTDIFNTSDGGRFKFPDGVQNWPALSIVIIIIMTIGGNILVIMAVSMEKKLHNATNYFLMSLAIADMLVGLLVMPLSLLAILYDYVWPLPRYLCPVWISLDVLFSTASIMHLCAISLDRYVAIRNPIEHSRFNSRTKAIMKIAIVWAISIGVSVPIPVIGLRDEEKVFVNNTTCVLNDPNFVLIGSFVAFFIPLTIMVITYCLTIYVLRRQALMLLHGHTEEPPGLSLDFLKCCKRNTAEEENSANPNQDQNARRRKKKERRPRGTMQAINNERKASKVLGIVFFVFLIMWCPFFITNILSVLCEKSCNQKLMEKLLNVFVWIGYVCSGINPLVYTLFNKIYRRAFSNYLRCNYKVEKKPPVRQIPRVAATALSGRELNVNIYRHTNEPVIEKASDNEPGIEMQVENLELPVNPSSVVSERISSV
Experimental: as §1

[5] = target: 5-HT2A (Homo sapiens, UniProt P28223); assay: Radioligand binding
Experimental: as §1

[6] = target: 5-HT2B (Homo sapiens, UniProt P41595); assay: Radioligand binding
Experimental: as §1

[7] = target: T3, M5 (Homo sapiens, UniProt P08912); assay: Radioligand binding
T3 sequence (P08912 1-532): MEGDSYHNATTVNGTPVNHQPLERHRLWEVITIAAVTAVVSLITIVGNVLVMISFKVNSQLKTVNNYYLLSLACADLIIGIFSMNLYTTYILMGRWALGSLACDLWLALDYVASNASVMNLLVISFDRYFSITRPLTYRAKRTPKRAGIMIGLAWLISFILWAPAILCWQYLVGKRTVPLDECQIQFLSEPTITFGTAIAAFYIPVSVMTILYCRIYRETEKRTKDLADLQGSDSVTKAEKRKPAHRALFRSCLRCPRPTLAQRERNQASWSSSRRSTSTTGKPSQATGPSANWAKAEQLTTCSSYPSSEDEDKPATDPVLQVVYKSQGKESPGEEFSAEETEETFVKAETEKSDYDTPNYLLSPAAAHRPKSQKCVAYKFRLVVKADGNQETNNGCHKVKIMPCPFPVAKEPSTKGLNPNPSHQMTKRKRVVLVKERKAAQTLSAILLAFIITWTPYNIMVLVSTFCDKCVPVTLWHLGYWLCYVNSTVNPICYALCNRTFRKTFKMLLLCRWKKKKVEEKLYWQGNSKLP
Experimental: as §1

[8] = target: D2S (Homo sapiens, UniProt P14416); assay: Radioligand binding
Experimental: as §1

[9] = target: 5-HT7 (Homo sapiens, UniProt P34969); assay: Radioligand binding
Experimental: as §1

[10] = target: κ (KOP) (Rattus norvegicus, UniProt P34975); assay: Radioligand binding
Experimental: as §1

[11] = test system: mice; assay: iv pentylenetetrazole (PTZ) seizure threshold test; details: compound ip
Experimental: They were also evaluated in the iv pentylenetetrazole (PTZ) test.
Data are expressed as the mean PTZ dose ± SEM for n = 10 that induced clonus or twitch in mice exposed to a particular dose of the test compound

[12] = test system: mice; assay: Formalin test (ETSP, area under the curve); format: in vivo; details: ip
[13] = 0.1 μM, read-out: % of control specific binding
[14] = 1 μM, read-out: % of control specific binding
[15] = 3 μM, read-out: % of control specific binding
[16] = 10 μM, read-out: % of control specific binding
[17] = 100 μM, read-out: % of control specific binding
[18] = 0.01 μM, read-out: % of control specific binding

Chain of D2S (P14416 1-414 isoform P14416-2): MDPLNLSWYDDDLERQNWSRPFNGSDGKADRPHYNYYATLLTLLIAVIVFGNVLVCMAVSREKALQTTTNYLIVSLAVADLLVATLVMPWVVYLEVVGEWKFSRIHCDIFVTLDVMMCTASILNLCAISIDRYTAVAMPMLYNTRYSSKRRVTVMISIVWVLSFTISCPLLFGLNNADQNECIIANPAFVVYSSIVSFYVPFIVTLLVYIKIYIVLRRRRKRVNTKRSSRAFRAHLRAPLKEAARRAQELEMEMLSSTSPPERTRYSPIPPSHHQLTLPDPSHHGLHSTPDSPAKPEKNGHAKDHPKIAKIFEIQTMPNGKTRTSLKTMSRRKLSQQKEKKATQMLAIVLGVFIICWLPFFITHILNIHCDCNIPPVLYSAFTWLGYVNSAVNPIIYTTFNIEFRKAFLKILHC
Chain of dopamine transporter (Q01959 whole entry): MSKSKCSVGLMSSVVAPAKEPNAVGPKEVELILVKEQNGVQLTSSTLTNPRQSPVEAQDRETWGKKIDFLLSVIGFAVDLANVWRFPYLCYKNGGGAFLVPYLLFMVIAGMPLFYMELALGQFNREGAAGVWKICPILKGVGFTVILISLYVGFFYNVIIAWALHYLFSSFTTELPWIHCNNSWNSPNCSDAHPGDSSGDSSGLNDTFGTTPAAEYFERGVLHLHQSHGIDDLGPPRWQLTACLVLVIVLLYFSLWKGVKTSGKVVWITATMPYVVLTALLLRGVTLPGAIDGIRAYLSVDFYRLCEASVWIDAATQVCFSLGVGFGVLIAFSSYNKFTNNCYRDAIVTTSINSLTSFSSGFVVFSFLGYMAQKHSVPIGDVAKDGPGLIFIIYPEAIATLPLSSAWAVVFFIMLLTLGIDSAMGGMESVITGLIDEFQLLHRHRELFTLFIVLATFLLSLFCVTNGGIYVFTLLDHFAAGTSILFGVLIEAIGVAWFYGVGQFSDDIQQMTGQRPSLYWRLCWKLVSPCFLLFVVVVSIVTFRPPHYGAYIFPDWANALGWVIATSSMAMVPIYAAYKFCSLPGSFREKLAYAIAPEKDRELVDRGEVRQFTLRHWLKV
Chain of 5-HT2A (P28223 whole entry): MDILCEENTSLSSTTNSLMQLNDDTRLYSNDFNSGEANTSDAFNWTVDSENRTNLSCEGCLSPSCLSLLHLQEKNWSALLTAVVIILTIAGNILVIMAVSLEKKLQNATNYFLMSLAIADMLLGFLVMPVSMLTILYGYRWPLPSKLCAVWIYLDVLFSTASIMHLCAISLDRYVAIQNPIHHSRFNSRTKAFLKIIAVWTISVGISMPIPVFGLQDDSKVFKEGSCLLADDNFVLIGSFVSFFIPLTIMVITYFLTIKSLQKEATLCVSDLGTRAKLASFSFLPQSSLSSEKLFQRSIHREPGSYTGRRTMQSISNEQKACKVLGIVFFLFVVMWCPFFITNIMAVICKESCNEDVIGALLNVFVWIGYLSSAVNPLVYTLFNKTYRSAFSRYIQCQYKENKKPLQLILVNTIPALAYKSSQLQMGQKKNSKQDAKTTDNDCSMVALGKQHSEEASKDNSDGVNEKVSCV
Chain of 5-HT2B (P41595 whole entry): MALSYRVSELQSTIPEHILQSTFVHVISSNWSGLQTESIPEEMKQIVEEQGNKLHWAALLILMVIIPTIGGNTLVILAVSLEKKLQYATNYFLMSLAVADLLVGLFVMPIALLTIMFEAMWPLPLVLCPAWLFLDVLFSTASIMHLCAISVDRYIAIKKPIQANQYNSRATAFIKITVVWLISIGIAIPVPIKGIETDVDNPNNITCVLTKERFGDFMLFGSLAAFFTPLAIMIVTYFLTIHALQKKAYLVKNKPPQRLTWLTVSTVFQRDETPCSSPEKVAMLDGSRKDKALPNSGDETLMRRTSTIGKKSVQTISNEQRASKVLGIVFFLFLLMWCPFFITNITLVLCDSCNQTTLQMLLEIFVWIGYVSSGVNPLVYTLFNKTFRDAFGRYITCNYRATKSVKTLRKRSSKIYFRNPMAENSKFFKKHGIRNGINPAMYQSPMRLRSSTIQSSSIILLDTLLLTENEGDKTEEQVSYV
Chain of κ (KOP) (P34975 whole entry): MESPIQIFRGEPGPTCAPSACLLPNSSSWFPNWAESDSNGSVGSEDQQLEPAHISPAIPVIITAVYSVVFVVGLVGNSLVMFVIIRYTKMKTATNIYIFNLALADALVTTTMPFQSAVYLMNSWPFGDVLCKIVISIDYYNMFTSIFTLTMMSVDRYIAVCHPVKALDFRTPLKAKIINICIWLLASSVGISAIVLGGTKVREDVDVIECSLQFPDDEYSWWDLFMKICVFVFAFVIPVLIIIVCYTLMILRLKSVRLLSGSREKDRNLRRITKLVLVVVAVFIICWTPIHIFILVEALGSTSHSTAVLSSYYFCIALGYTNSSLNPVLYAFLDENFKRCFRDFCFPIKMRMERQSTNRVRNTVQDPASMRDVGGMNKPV
Chain of 5-HT7 (P34969 whole entry): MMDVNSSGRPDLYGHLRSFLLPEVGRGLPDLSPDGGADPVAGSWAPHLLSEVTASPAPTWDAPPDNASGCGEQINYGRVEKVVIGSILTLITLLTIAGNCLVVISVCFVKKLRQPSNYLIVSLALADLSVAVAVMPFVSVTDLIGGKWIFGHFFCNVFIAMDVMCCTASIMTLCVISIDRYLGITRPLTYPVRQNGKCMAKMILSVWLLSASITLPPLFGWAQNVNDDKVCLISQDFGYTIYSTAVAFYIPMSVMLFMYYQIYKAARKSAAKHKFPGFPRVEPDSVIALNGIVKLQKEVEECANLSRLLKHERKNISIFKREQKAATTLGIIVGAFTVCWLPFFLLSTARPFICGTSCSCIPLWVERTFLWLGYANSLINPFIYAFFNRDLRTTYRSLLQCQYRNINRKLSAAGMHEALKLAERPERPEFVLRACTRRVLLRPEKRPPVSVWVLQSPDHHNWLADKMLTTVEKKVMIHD

CCC(CO)NCCOc1c(C)cccc1Cl (centres unmarked) [Compound 4, R,S-2-((2-(2-chloro-6-methylphenoxy)ethyl)amino)butan-1-ol]
Corneal kindling TPE [1]: 0.25 h | Corneal kindling ED50 ([1]; […]): 19.51 (11.86–28.41) mg/kg | % of control specific binding ([2]; 100 μM): 46.7% | % of control specific binding ([3]; 100 μM): 29.6% | % of control specific binding ([4]; 100 μM): 44.6% | % of control specific binding ([5]; 100 μM): 37.1% | % of control specific binding ([6]; 100 μM): 2.3% | % of control specific binding ([7]; 100 μM): 21.5% | % of control specific binding ([8]; 100 μM): 33.3% | % of control specific binding ([9]; 100 μM): 26.4% | % of control specific binding ([10]; 100 μM): 29.0% | influence on seizure threshold [11]: lowered the seizure threshold; also recorded: showed activity in lowering the seizure threshold | Area under the curve (I phase) ([12]; 21 mg/kg): 124.8 ± 32.7 | Area under the curve (II phase) ([12]; 21 mg/kg): 569.2 ± 405.0 | Area under the curve, % of control (I phase) ([12]; 21 mg/kg): 64.0% | Area under the curve, % of control (II phase) ([12]; 21 mg/kg): 72.7% | Area under the curve (I phase) ([12]; 21 mg/kg, listed as 348014): 124.8 | Area under the curve (II phase) ([12]; 21 mg/kg, listed as 348014): 569.2

CCC(CO)NCCOc1c(C)cccc1Cl (centres unmarked) [KM-408, R,S-2-((2-(2-chloro-6-methylphenoxy)ethyl)amino)butan-1-ol hydrochloride]
Corneal kindling avg. seizure score by Racine (0–5) ([1]; at 30 mg/kg, […]): 2.5 | IC50 [2]: 64 µM | Ki [2]: 55 µM | remaining activity at 0.1 µM [2, 13]: 114% | remaining activity at 1 µM [2, 14]: 108% | remaining activity at 3 µM [2, 15]: 123% | remaining activity at 10 µM [2, 16]: 99.7% | remaining activity at 100 µM [2, 17]: 43.1% | IC50 [3]: 43 µM | Ki [3]: 23 µM | remaining activity at 0.1 µM [3, 13]: 93.9% | remaining activity at 1 µM [3, 14]: 87.8% | remaining activity at 3 µM [3, 15]: 94.4% | remaining activity at 10 µM [3, 16]: 72.6% | remaining activity at 100 µM [3, 17]: 29.6% | IC50 [4]: 77 µM | Ki [4]: 26 µM | remaining activity at 0.1 µM [4, 13]: 95.6% | remaining activity at 1 µM [4, 14]: 87.1% | remaining activity at 3 µM [4, 15]: 95.2% | remaining activity at 10 µM [4, 16]: 82.4% | remaining activity at 100 µM [4, 17]: 40.6% | IC50 [5]: 55 µM | Ki [5]: 30 µM | remaining activity at 0.1 µM [5, 13]: 104% | remaining activity at 1 µM [5, 14]: 95% | remaining activity at 3 µM [5, 15]: 94.1% | remaining activity at 10 µM [5, 16]: 85.1% | remaining activity at 100 µM [5, 17]: 36.9% | IC50 [6]: 2.4 µM | Ki [6]: 1.2 µM | remaining activity at 0.001 µM ([6]; 0.001 μM, read-out: % of control specific binding): 130% | remaining activity at 0.01 µM [6, 18]: 121% | remaining activity at 0.1 µM [6, 13]: 103% | remaining activity at 1 µM [6, 14]: 88% | remaining activity at 10 µM [6, 16]: 28.3% | IC50 [7]: 35 µM | Ki [7]: 18 µM | remaining activity at 0.01 µM [7, 18]: 104% | remaining activity at 0.1 µM [7, 13]: 92.6% | remaining activity at 1 µM [7, 14]: 96.8% | remaining activity at 10 µM [7, 16]: 76.6% | remaining activity at 100 µM [7, 17]: 26% | IC50 [8]: 100 µM | Ki [8]: 34 µM | remaining activity at 0.1 µM [8, 13]: 96.2% | remaining activity at 1 µM [8, 14]: 96.5% | remaining activity at 3 µM [8, 15]: 92.8% | remaining activity at 10 µM [8, 16]: 86% | remaining activity at 100 µM [8, 17]: 49.1% | IC50 [9]: 18 µM | Ki [9]: 6.5 µM | remaining activity at 0.01 µM [9, 18]: 107% | remaining activity at 0.1 µM [9, 13]: 106% | remaining activity at 1 µM [9, 14]: 105% | remaining activity at 10 µM [9, 16]: 66.1% | remaining activity at 100 µM [9, 17]: 20.2% | IC50 [10]: 25 µM | Ki [10]: 17 µM | remaining activity at 0.01 µM [10, 18]: 104% | remaining activity at 0.1 µM [10, 13]: 98.3% | remaining activity at 1 µM [10, 14]: 97.3% | remaining activity at 10 µM [10, 16]: 72.1% | remaining activity at 100 µM [10, 17]: 21.1% | influence on seizure threshold [11]: the effect was not observed | influence on seizure threshold ([11]; listed as KM408): effect was not shown | Area under the curve (I phase) ([12]; 13.25 mg/kg): 113.7 ± 65.6 | Area under the curve (II phase) ([12]; 13.25 mg/kg): 489.7 ± 211.3
